Test results published in US8389509B2, “Substituted pyrazole compounds” (Bristol-Myers Squibb Company, priority 2009, dated 2013).

Tests used:
circulating lymphocytes = test: Blood Lymphocyte Reduction Assay (BLR) in rats; format: in vivo, Lewis rats; conditions: oral
Procedure: Blood Lymphocyte Reduction Assay (BLR) in Rodents
Lewis rats or BALB/c mice were dosed orally with test article (as a solution or suspension in the vehicle) or vehicle alone (polyethylene glycol 300, “PEG300”). Blood was drawn at 4 hr and 24 h by retro-orbital bleeding. Blood lymphocyte counts were determined on an ADVIA 120 Hematology Analyzer (Siemens Healthcare Diagnostics). The results were measured as a reduction in the percentage of circulating lymphocytes as compared to the vehicle treated group at the 4 hr and 24 hr measurement. The results represent the average results of all animals within each treatment group (n=3-4).
Compounds of the present invention were tested in the Blood Lymphocyte Reduction assay (BLR) described hereinabove and the results are shown in Table D for rats and Table E for mice.

C57BL/6 mice = test: Mouse Experimental Autoimmune Encephalomyelitis Assay (EAE); format: in vivo; conditions: for Clinical Score on Day 24, Mean: vehicle mean 2.63
Procedure: Mouse Experimental Autoimmune Encephalomyelitis Assay (EAE)
Mice (C57BL/6 female, 6-8 weeks of age, Charles River, n=10-12 treatment group) were immunized subcutaneously with 150 μg MOG35-55 emulsified 1:1 with […] Freund's adjuvant (sigma) supplemented with 150 μg Mycobacterium tuberculosis H37RA (Difco Laboratories). 400 ng of pertussis toxin (CalBiochem) was injected intraperitoneally on the day of immunization and two days later. Animals were dosed once daily with the test article (as a solution or suspension in the vehicle) or vehicle alone (polyethylene glycol 300, “PEG300”) starting from 1 day after immunization. Clinical scoring and body weight were taken 3 times per week until the end of the study on day 24. Clinical scoring system: 0.5: partial tail weakness; 1: limp tail or waddling gait with tail tonicity; 1.5: waddling gait with partial tail weakness; 2: waddling gait with limp tail (ataxia); 2.5: ataxia with partial limb paralysis; 3: full paralysis of one limb; 3.5: full paralysis of one limbs with partial paralysis of a second limb; 4: full paralysis of two limbs; 4.5: moribund; 5: death. A compound of the present invention was tested in the Mouse Experimental Autoimmune Encephalomyelitis assay described hereinabove and the results are shown in Table H.

S1P3 = S1P3 (Homo sapiens, UniProt Q99500); test: Method B: Receptor [35S] GTPγS SPA Binding Assay, S1P3; format: biochemical; design: expressed in transfected cells; host or cells: CHO cells; conditions: S1P3 transfected CHO cell membranes
Sequence of S1P3 (Q99500 whole entry): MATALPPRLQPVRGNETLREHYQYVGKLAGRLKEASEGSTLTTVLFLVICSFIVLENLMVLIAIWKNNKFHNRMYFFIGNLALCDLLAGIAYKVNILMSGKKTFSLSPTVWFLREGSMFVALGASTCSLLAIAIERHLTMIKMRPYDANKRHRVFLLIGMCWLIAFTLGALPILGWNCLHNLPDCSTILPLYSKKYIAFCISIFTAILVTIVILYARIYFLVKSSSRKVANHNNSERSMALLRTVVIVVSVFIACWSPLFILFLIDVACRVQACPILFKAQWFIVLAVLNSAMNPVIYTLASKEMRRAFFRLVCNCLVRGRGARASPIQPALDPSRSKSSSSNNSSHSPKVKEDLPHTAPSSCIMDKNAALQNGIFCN
Procedure: Method B: Receptor [^35S] GTPγS SPA Binding Assays
Membranes prepared from S1P1 or S1P3 transfected CHO cells (2 μg protein) were incubated in 96-well white plates (CORNING® 3693) with test compounds diluted in DMSO, in 50 μl of reaction mixture containing 7.5 μA WGA-PVT beads (20 mg/ml), and 5 μM GDP, 20 mM HEPES pH 7.4, 100 mM NaCl, 1 mM EDTA, 5 mM MgCl2, 10 μg/ml saponin, 0.1% BSA, and 1 μM leupeptin. The assay was initiated with the addition of […] of 0.2 nM [^35S]-GTPγS (1250 Ci/mmol; NEN) in assay buffer. After 90 min incubation at room temperature, spin the plate at 1000 rpm for 5 min. The bound radionuclides were measured at TOPCOUNT®, expressed as % response relative to S1P (1 μM) activation. Data was analyzed using the four parameter logistic equation in Excel. The four parameters in the equation, Y=A+((B−A)/(1+((EC50/X)^D))), are described as following: A is the Y value (agonist activity) at the bottom plateau; B is the Y value at the top plateau; EC50 is the X value (agonist concentration) when the response is halfway between bottom and top; D is Hill coefficient. Curves were not generated for compounds having Ymax values were below 50%.
Compounds of the present invention and Comparative Compound A were tested in the Receptor [^35S] GTPγS Binding Assays (Method A) and Receptor [^35S] In some instances, the value is an average of multiple experiments where N is the number of experiments conducted that provided satisfactory dose response curves. When more than one batch of an example was tested, the value presented is from a batch which allowed a comparison of GTPγS S1P1 and GTPγS S1P3 in which the most number of experiments were performed. Preferably, the same batch was examined in Method A and Method B. Data was not averaged across different batches of an example compound.

S1P1 = target: T1, S1P1 (Homo sapiens, UniProt P21453); test: S1P1 Binding Assay (33P-S1P competition, CHO membranes); conditions: membranes of CHO cells expressing human S1P1, 33P-S1P ligand; read-out: S1P1 B IC50
T1 construct: expressed in transfected cells; host or cells: CHO cells
T1 sequence (P21453 whole entry): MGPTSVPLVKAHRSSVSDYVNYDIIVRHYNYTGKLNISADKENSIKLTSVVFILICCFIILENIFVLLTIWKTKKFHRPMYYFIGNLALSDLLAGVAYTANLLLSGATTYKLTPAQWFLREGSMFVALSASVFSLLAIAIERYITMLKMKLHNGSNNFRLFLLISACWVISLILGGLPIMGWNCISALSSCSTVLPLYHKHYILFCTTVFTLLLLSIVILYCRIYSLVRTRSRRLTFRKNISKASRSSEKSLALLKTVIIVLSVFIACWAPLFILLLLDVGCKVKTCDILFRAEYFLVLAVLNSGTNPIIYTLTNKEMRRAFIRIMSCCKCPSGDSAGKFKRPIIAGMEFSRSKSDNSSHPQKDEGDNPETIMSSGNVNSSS
Procedure: Membranes were prepared from CHO cells expressing human S1P1. Cells were dissociated in buffer containing 20 mM HEPES, pH 7.5, 50 mM NaCl, 2 mM EDTA and Protease Inhibitor cocktail (Roche), and disrupted on ice using the Polytron homogenizer. The homogenate was centrifuged at 20,000 rpm (48,000 g) and the supernatant was discarded. The membrane pellets were resuspended in buffer containing 50 mM HEPES, pH 7.5, 100 mM NaCl, 1 mM MgCl2, 2 mM EDTA and stored in aliquots at −80° C. after protein concentration determination.
Membranes (2 μg/well) and 0.03 nM final concentration of ^33P-S1P ligand (1 mCi/ml, American Radiolabeled Chemicals) were added to the compound plates. Binding was performed for 60 min at room temperature, terminated by collecting the membranes onto GF/B filter plates, and radioactivity was measured by TOPCOUNT®. The competition data of the test compounds over a range of concentrations was plotted as percentage inhibition of radioligand specific binding. The IC50 is defined as the concentration of competing ligand needed to reduce specific binding by 50%.
Compounds of the present invention and Comparative Compound A were tested in the S1P1 binding assay described hereinabove and the results rounded to two digits, shown in Table A were obtained. In some instances, the value is an average of multiple experiments where N is the number of experiments conducted that provided satisfactory dose response curves. When more than one batch of an example was tested, the value presented is from the batch which allowed a comparison of GTPγS S1P1 and GTPγS S1P3 in Method A (Data shown in Table B). Data was not averaged across different batches of an example compound.

EC50 (S1P3): 4.4 µM
IC50 (S1P1): 0.0004 µM
Compound: O=C(O)C1CN(Cc2ccc(-c3noc(-c4cnn(-c5ccccn5)c4C(F)(F)F)n3)cc2)C1 [Example 1, 1-(4-(5-(1-(Pyridin-2-yl)-5-(trifluoromethyl)-1H-pyrazol-4-yl)-1,2,4-oxadiazol-3-yl)benzyl)azetidine-3-carboxylic acid]
% reduction in lymphocytes at 4 hr. (circulating lymphocytes; 0.04 mg/kg): 49%
% reduction in lymphocytes at 24 hr. (circulating lymphocytes; 0.04 mg/kg): 6%
% reduction in lymphocytes at 4 hr. (circulating lymphocytes; 0.2 mg/kg): 77%
% reduction in lymphocytes at 24 hr. (circulating lymphocytes; 0.2 mg/kg): 15%
% reduction in lymphocytes at 4 hr. (circulating lymphocytes; 1.0 mg/kg): 86%
% reduction in lymphocytes at 24 hr. (circulating lymphocytes; 1.0 mg/kg): 61%
% reduction in lymphocytes at 4 hr. (circulating lymphocytes; 3.0 mg/kg): 81%
% reduction in lymphocytes at 24 hr. (circulating lymphocytes; 3.0 mg/kg): 75%
Clinical Score on Day 24, Mean (C57BL/6 mice; 1.0 mg/kg once daily): 0.32
Clinical Score on Day 24, Mean (C57BL/6 mice; 3.0 mg/kg once daily): 0.77
Clinical Score on Day 24, Mean (C57BL/6 mice; 10.0 mg/kg once daily): 0.30
disease progression as determined by the clinical scores (C57BL/6 mice; C57Bl/6 mice, prophylactic oral dosing): inhibits disease progression
